Laboratory results published in publication PMC6534582 (Nature Communications, 2019).
Values belong to the molecule of their own block, whether it stands above or below them. No end group written: not given here.

Assays:
[1] = system: Mof^f/f;Cre-ER brown preadipocytes; experiment: Growth rate of Mof KO cells; assay type: cell-based, mouse; conditions: for growth rate of Mof KO cells: 4OHT
Experimental: (§1) Mof^f/f mice were crossed with Cre-ER (Jackson no. 008463) to generate Mof^f/f;Cre-ER mice[10]. Primary brown preadipocytes were isolated from interscapular brown adipose tissue of newborn (P0) Mof^f/f;Cre-ER pups and immortalized by SV40T[38]. All mouse experiments were performed in accordance with the NIH Guide for the Care and Use of Laboratory Animals and approved by the Animal Care and Use Committee of NIDDK, NIH. For rescue experiment by ectopic expression of rat MOF, immortalized Mof^f/f;Cre-ER preadipocytes stably expressing WT or K274R MOF were established using lentivirus-mediated gene transfer. Briefly, 293FT lentiviral packaging cells were transfected with pLenti-CMV plasmids expressing MYC-tagged WT or K274R rat MOF. Preadipocytes were infected with those lentivirus-containing media, followed by puromycin selection for two passages. Those expressing MYC-tagged rat MOF were confirmed by western blot.

[2] = system: Jmjd3 mRNA in Mof^f/f;Cre-ER brown preadipocytes; experiment: qRT-PCR of Jmjd3 mRNA (control gene); assay type: cell-based, mouse
Experimental: as §1
(§2) Western blot of histone modifications using acid extracts or of nuclear proteins using nuclear extracts were done as described[45],[46]. Total RNA was extracted using TRIzol (Invitrogen) and reverse transcribed using the ProtoScript II First-Strand cDNA Synthesis Kit (NEB), following the manufacturers’ instructions. qRT-PCR was done using the following SYBR green primers: Mof (forward, 5’–[…]–3’, and reverse, 5’–[…]–3’). qPCR was done using Luna® Universal qPCR Master Mix according to the manufacturers’ instructions (NEB). To detect truncated Mof transcripts after 4-OHT treatment (2 µM), RT-PCR was performed as described.

[3] = system: Mof mRNA in Mof^f/f;Cre-ER brown preadipocytes; experiment: qRT-PCR of Mof mRNA; assay type: cell-based, mouse
Experimental: as §1, §2

[4] = system: MLL4-PHD6 (aa 1503–1562), wild-type; experiment: 1H,15N HSQC NMR titration of WT MLL4-PHD6; assay type: binding, human; conditions: for chemical shift perturbations (CSPs): 1H,15N HSQC titration, 0.15 mM 15N-labeled MLL4-PHD6, PBS pH 6.5, 298 K
Experimental: (§3) The PHD6 domain of human MLL4 (aa 1503–1562) was cloned into a pCool vector. […] The human MLL3 PHD7 domain (aa 1083–1143) was cloned into a pGEX-6p vector. All constructs were expressed in Rosetta2 (DE3) pLysS cells. Protein production was induced with 0.5 mM IPTG overnight at 16̊ °C in Luria broth (LB) or minimal media (M9) supplemented with ^15NH4Cl and 0.06 mM ZnCl2 or ^15NH4Cl, ^13C-glucose, and 0.06 mM ZnCl2. The GST-tagged PHD proteins were purified on glutathione Sepharose 4B beads (GE Healthcare) in 50 mM Tris-HCl (pH 7.5) buffer, supplemented with 250 mM NaCl and 2 mM dithiothreitol (DTT). The GST tag was cleaved with Thrombin or TEV protease overnight at 4 °̊C. Unlabeled proteins were further purified by size exclusion chromatography and concentrated in Millipore concentrators. All mutants were generated by site-directed mutagenesis using the Stratagene QuikChange mutagenesis protocol, grown, and purified as WT proteins.
NMR samples for structure determination were prepared in 20 mM Tris-HCl (pH 7.0) buffer, supplemented with 100 mM NaCl, 5 mM DTT, and 8% D2O. […] 3D ^15N-/^13C-filtered ^13C- and ^15N-edited NOESY-HSQC spectra (mixing time of 150 ms) were collected to obtain intermolecular distance restraints.
(§4) For NMR titration experiments, ^1H,^15N HSQC spectra of 0.15 mM uniformly ^15N-labeled WT or mutated MLL4-PHD6 were recorded while peptides (synthesized by SynPeptide) were added stepwise. All experiments were carried out in phosphate-buffered saline buffer (pH 6.5).

[5] = system: MLL4-PHD6; experiment: 1H,15N HSQC of linked H4-G7-MLL4-PHD6 construct; assay type: binding, human
Experimental: as §3, §4

[6] = biological target: T1, MLL4-PHD6 part of the linked H4-G7-MLL4-PHD6 construct (human, UniProt O14686 1503-1562); experiment: NMR, 1H,15N HSQC spectra of a linked construct compared with free and peptide-bound PHD6; H4 (11–23) joined to MLL4-PHD6 on one chain through a hepta-glycine linker; wild type and H4 mutants; conditions: both partners purified
T1 construct: human MLL4 (KMT2D), PHD6 finger; aa 1503-1562 by the methods, 1503-1560 by the results; in the assay joined at its N-terminus through GGGGGGG to H4 residues 11-23 (m15 or its mutants) on one chain; also called H4_(11–23)-G7-PHD6 (PHD6 part); source: E. coli Rosetta2 (DE3) pLysS, purified
T1 sequence (O14686 1503-1562): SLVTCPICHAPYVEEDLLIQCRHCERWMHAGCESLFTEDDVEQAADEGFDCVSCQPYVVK

[7] = biological target: T2, PHD6 finger of human MLL4 (aa 1503-1562) (human, UniProt O14686 1503-1562); experiment: NMR titration; 1H,15N HSQC spectra of 2.5 mM 13C/15N-labelled MLL4-PHD6 upon titration with H4K16ac (11-21) peptide at protein:ligand 1:0, 1:2, 1:3; 20 mM Tris-HCl pH 7.0, 100 mM NaCl, 5 mM DTT, 8% D2O; 298 K; conditions: both partners purified
T2 construct: PHD6 finger of human MLL4 (KMT2D), aa 1503-1562, cloned into a pCool vector; Uniformly 15N-labelled for the titrations at 0.15 mM; also called MLL4-PHD6; MLL4-PHD6 1503-1562; source: Rosetta2 (DE3) pLysS cells, purified (glutathione Sepharose 4B; GST tag cleaved)
T2 sequence (O14686 1503-1562): as above

[8] = biological target: T3, PHD6 finger of MLL4 (MLL4-PHD6, aa 1503–1562), wild type (human, UniProt O14686 1503-1562); experiment: NMR structure; solution structure; 2.5 mM 13C/15N-labeled MLL4-PHD6 and 7.5 mM H4K16ac (11–21) peptide; 20 mM Tris-HCl pH 7.0, 100 mM NaCl, 5 mM DTT, 8% D2O; 298 K; conditions: both partners purified
T3 construct: human MLL4 (KMT2D), PHD6 finger, aa 1503-1562; cloned into a pCool vector; 15N- or 13C/15N-labelled for NMR; also called MLL4-PHD6_(1503–1562); PHD6 domain of human MLL4; source: E. coli Rosetta2 (DE3) pLysS, purified (glutathione Sepharose, GST cleaved, SEC for unlabeled protein)
T3 sequence (O14686 1503-1562): as above

[9] = biological target: T3, PHD6 finger of MLL4 (MLL4-PHD6, aa …); experiment: NMR titration; 1H,15N HSQC of 0.15 mM uniformly 15N-labeled PHD finger (WT or mutated), peptides added stepwise; phosphate-buffered saline pH 6.5; 298 K; conditions: both partners purified
[10] = biological target: T2, PHD6 finger of human MLL4 (aa 1503-1562); experiment: NMR titration; 1H,15N HSQC spectra of 0.15 mM uniformly 15N-labelled MLL4-PHD6 while peptide was added stepwise up to a protein:peptide molar ratio of 1:5; phosphate-buffered saline pH 6.5; 298 K; conditions: both partners purified
[11] = 4OHT-treated, technical replicate 1
[12] = 4OHT-treated, technical replicate 2
[13] = after two rounds of 4OHT treatment

Molecule: CC/C(=C(\c1ccc(O)cc1)c1ccc(OCCN(C)C)cc1)c1ccccc1 [4OHT, 4-hydroxytamoxifen]
growth rate of Mof KO cells ([1]; D1, average of two replicates (D0 = 1; Mock 3.715)): 2.81
growth rate of Mof KO cells ([1]; D1, replicate 1 (Mock 3.89)): 2.98
growth rate of Mof KO cells ([1]; D1, replicate 2 (Mock 3.54)): 2.64
growth rate of Mof KO cells ([1]; D2, average of two replicates (D0 = 1; Mock 6.365)): 4.725
growth rate of Mof KO cells ([1]; D2, replicate 1 (Mock 5.82)): 4.59
growth rate of Mof KO cells ([1]; D2, replicate 2 (Mock 6.91)): 4.86
growth rate of Mof KO cells ([1]; D3, average of two replicates (D0 = 1; Mock 10.695)): 7.02
growth rate of Mof KO cells ([1]; D3, replicate 1 (Mock 9.81)): 6.59
growth rate of Mof KO cells ([1]; D3, replicate 2 (Mock 11.58)): 7.45
growth rate of Mof KO cells ([1]; D4, average of two replicates (D0 = 1; Mock 17.965)): 12
growth rate of Mof KO cells ([1]; D4, replicate 1 (Mock 16.98)): 12.54
growth rate of Mof KO cells ([1]; D4, replicate 2 (Mock 18.95)): 11.46
growth rate of Mof KO cells ([1]; D5, average of two replicates (D0 = 1; Mock 25.18)): 15.215
growth rate of Mof KO cells ([1]; D5, replicate 1 (Mock 26.41)): 14.49
growth rate of Mof KO cells ([1]; D5, replicate 2 (Mock 23.95)): 15.94
growth, 4OHT average relative to Mock ([1]; D4): 66.7965
growth, 4OHT average relative to Mock ([1]; D5): 60.4249
relative Jmjd3 mRNA level ([2]; 4OHT-treated Mof^f/f;Cre-ER preadipocytes, average of two technical replicates, Mock average 1.00005, STDEV in own column): 0.8326
relative Jmjd3 mRNA level [2, 11]: 0.841
relative Jmjd3 mRNA level [2, 12]: 0.8241
mRNA of control gene Jmjd3 [2, 13]: unaffected
relative Mof mRNA level ([3]; 4OHT-treated Mof^f/f;Cre-ER preadipocytes, average of two technical replicates, single experiment, Mock average 1.00268, STDEV in own column): 0.1967
relative Mof mRNA level [3, 11]: 0.2148
relative Mof mRNA level [3, 12]: 0.1786
mRNA level of Mof [3, 13]: significantly decreased

Molecule: CC(=O)NCCCC[C@H](N)C(=O)O [Kac]
chemical shift perturbations (CSPs) [4]: failed to induce CSPs

Molecule: H4K16ac (11–21): H4K16ac peptide (residues 11–21) used for NMR structure; 15N/13C-labeled form synthesized by Bio-Synthesis
saturation of MLL4-PHD6 by 3-fold excess of peptide ([4]; 7.5 mM H4K16ac (11–21) with 2.5 mM 13C/15N-labeled MLL4-PHD6, 20 mM Tris-HCl pH 7.0, 100 mM NaCl, 5 mM DTT, 8% D2O, 298 K, 1H,15N HSQC and 1H,13C HSQC): almost saturated

Molecule: H4_1–9: H4 peptide (residues 1–9 of H4) (SGRGKGGKG)
chemical shift perturbations (CSPs) [4]: no chemical shift perturbations

Molecule: H4_8–25: peptide encompassing residues 8–25 of H4 (KGLGKGGAKRHRKVLRDN)
chemical shift perturbations (CSPs) [4]: CSPs similar in directions to CSPs induced by the longer H4_1–23 peptide

Molecule: H4_12–23: peptide encompassing residues 12–23 of H4 (KGGAKRHRKVLR)
chemical shift perturbations (CSPs) [4]: CSPs similar in directions to CSPs induced by the longer H4_1–23 peptide

B1: H4 (residues 11–23) part of the linked H4-G7-MLL4-PHD6 construct, wild type (domain or fragment, UniProt P62805 12-24, looked up)
chain: GKGGAKRHRKVLR
notes: histone H4, residues 11-23; in the assay this stretch stood on ONE chain with m16: H4 11-23, hepta-glycine linker GGGGGGG, MLL4-PHD6; cloned into pDEST-15; also called H4_(11–23)-G7-PHD6 (H4 part); linked H4-MLL4-PHD6 construct; source: E. coli Rosetta2 (DE3) pLysS, purified
binding result [6]: binds

The next lines start with results.

binding of the H4 region in linked construct ([5]; H4 aa 11–23, hepta-glycine linker, MLL4-PHD6, no mutation): tightly bound to the protein
Molecule: linked H4-MLL4-PHD6 construct: aa 11–23 of H4, hepta-glycine (GGGGGGG) linker, aa 1503–1562 of MLL4-PHD6
spectral changes on mutation ([5]; H4K12 mutated to alanine in linked construct): only small spectral changes
spectral changes on mutation ([5]; H4K23 mutated to alanine in linked construct): only small spectral changes
complex formation on mutation ([5]; K16 and R17 of H4 mutated to alanine in linked construct): disrupted formation of the complex

binding result [6]: binds
B2: H4 (residues 11–23) K12A part of the linked H4-G7-MLL4-PHD6 construct (domain or fragment, UniProt P62805 12-24, looked up)
chain: GAGGAKRHRKVLR
notes: histone H4, residues 11-23, K12A; on one chain with m16 through a GGGGGGG linker; also called H4K12 to alanine in the linked construct; source: E. coli Rosetta2 (DE3) pLysS, purified as WT protein

binding result [7]: binds
B3: histone H4K16ac (11-21) peptide (peptide, UniProt P62805 12-22, looked up)
peptide: GKGGAK(Ac)RHRKV
notes: histone H4, residues 11-21, acetylated at K16; source: synthetic peptide

binding result [8]: binds
B4: histone H4K16ac peptide, residues 11–21 (peptide, UniProt P62805 12-22, looked up)
peptide: GKGGAK(Ac)RHRKV
notes: histone H4, residues 11-21, acetylated at K16; a 15N/13C-labelled copy (Bio-Synthesis) was used to validate assignments; in the structure calculation only G13GAKacRH18 was used, with N-terminal acetyl and C-terminal N-Me amide caps; also called H4K16ac (11–21) peptide; source: synthetic peptide

binding result [9]: binds
B5: histone H4 peptide, residues 12–23 (peptide, UniProt P62805 13-24, looked up)
peptide: KGGAKRHRKVLR
notes: histone H4, residues 12-23; also called H4_(12–23); source: synthetic peptide (SynPeptide)

binding result [9]: binds
B6: histone H4 peptide, residues 8–25 (peptide, UniProt P62805 9-26, looked up)
peptide: KGLGKGGAKRHRKVLRDN
notes: histone H4, residues 8-25; source: synthetic peptide (SynPeptide)

binding result [10]: binds
B7: histone H4 (8-25) peptide (peptide, UniProt P62805 9-26, looked up)
peptide: KGLGKGGAKRHRKVLRDN
notes: histone H4, residues 8-25, unmodified; source: synthetic peptide (SynPeptide)
